{"source": "patent US20200396973A1", "about": "“PSORIASIS-INDUCED ANIMAL MODEL AND USE THEREOF” (CUROGEN TECHNOLOGY CO., LTD., priority 2016, published 2020)", "tested_on": "Peli1 transgenic mice (rtTA-Peli1)", "method": "Tissues of mice were fixed using 10% neutral buffered formalin to produce paraffin blocks. Sections having a thickness of 3 μm were obtained from the paraffin blocks, and then stained with hematoxylin & eosin (H&E). In the case of immunohistochemistry, staining was performed using an anti-K14 antibody, an anti-Ki67 antibody, an anti-CD31 antibody, and an anti-CD3 antibody, followed by mounting using a mounting medium containing a DAPI reagent. Images of the stained tissue samples were acquired using an AxioCam digital microscope camera and AxioVision image processing software (Carl Zeiss)."}
{"smiles": "CN(Cc1cnc2nc(N)nc(N)c2n1)c1ccc(C(=O)N[C@@H](CCC(=O)O)C(=O)O)cc1", "note": "[methotrexate]", "values": [{"measurement": "thickness of the skin", "setting": "rtTA-Peli1 mice with psoriasis phenotypes after doxycycline, intraperitoneal injection for a certain period, FIG. 8D", "value": "about half of the thickness of the skin was reduced"}, {"measurement": "increase in the thickness of the skin according to the proliferation of epidermal cells (H&E staining)", "setting": "rtTA-Peli1 mice, doxycycline 12 weeks, after administration of CsA or MTX, FIG. 8B", "value": "still observed"}, {"measurement": "phenotypes of parakeratosis, hyperkeratosis, rete ridge, and microabscess (skin layer structure, H&E staining)", "setting": "rtTA-Peli1 mice, doxycycline 12 weeks, then CsA 6 times a week or MTX 4 times a week intraperitoneally, FIG. 8B", "value": "most of the phenotypes of parakeratosis, hyperkeratosis, rete ridge, and microabscess shown in the Peli1 transgenic mice (rtTA-Peli1) disappeared"}, {"measurement": "psoriasis phenotype score", "setting": "rtTA-Peli1 mice, doxycycline 12 weeks, then intraperitoneal injection for a certain period, scoring per Table 1, FIG. 8C", "value": "reduced"}]}
